Source: ChEMBL document CHEMBL1201862, “PubChem BioAssay data set” (2004)
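Dose response: 5 concentrations. Exposure: 48 h. Format: 96-well plates. Endpoint: linear interpolation; highest concentration if not reached. The concentration for 50% growth inhibition is given as GI50.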 Activity calls are given as the source filed them. Cut-off read from the data, not from the text of the source: active = GI50 up to about 1.1 µM and inactive = higher.

Assays:
Assay in all cases: NCI tumour cell line growth inhibition, 48 h
[1] = test system: MCF7
[2] = test system: SN12C
[3] = test system: NCI-H23
[4] = test system: TK-10
[5] = test system: CCRF-CEM
[6] = test system: NCI-H226
[7] = test system: HCT-15
[8] = test system: OVCAR-8
[9] = test system: KM12
[10] = test system: COLO 205
[11] = test system: SNB-19
[12] = test system: HOP-18
[13] = test system: EKVX
[14] = test system: U-251
[15] = test system: NCI/ADR-RES
[16] = test system: DU-145
[17] = test system: PC-3
[18] = test system: MDA-MB-231
[19] = test system: RXF 393
[20] = test system: OVCAR-5

CC(=O)CC[N+](C)(C)C
GI50 [1]: 30.3 µM (inactive)
GI50 [2]: 27.7 µM (inactive)
GI50 [3]: 29.2 µM (inactive)
GI50 [4]: 27.6 µM (inactive)
GI50 [5]: 5.24 µM (inactive)
GI50 [6]: 53 µM (inactive)
GI50 [7]: 22.7 µM
GI50 [8]: 33.5 µM (inactive)
GI50 [9]: 77.3 µM (inactive)
GI50 [10]: 9.04 µM (inactive)
GI50 [11]: 22.7 µM (inactive)
GI50 [12]: 13.9 µM (inactive)
GI50 [13]: 17.7 µM (inactive)
GI50 [14]: 34.6 µM (inactive)
GI50 [15]: 38.9 µM (inactive)
GI50 [16]: 88.5 µM (inactive)
GI50 [17]: 76.9 µM (inactive)
GI50 [18]: 21.3 µM (inactive)
GI50 [19]: 12.9 µM (inactive)
GI50 [20]: 44.6 µM (inactive)

CCOC(=O)/C(=C\c1ccccc1)C(=O)CCN1CCOCC1
GI50 [1]: 5.2 µM (inactive)
GI50 [2]: 8.65 µM (inactive)
GI50 [3]: 8.85 µM (inactive)
GI50 [4]: 6.5 µM (inactive)
GI50 [5]: 1.29 µM (inactive)
GI50 [6]: 20.7 µM (inactive)
GI50 [7]: 3.2 µM
GI50 [8]: 4.06 µM (inactive)
GI50 [9]: 7.94 µM (inactive)
GI50 [10]: 3.66 µM (inactive)
GI50 [11]: 16.2 µM (inactive)
GI50 [12]: 13.9 µM (inactive)
GI50 [13]: 15.6 µM (inactive)
GI50 [14]: 8.55 µM (inactive)
GI50 [15]: 3.06 µM (inactive)
GI50 [16]: 17.2 µM (inactive)
GI50 [17]: 12.2 µM (inactive)
GI50 [18]: 13.5 µM (inactive)
GI50 [19]: 2.86 µM (inactive)
GI50 [20]: 17.4 µM (inactive)

CC(=O)OCC1OC(NC(=S)N/N=C2\CC(c3ccccc3)Oc3ccccc32)C(OC(C)=O)C(OC(C)=O)C1OC(C)=O (configuration not stated)
GI50 [2]: > 100 µM (inactive)
GI50 [3]: > 100 µM (inactive)
GI50 [4]: > 100 µM (inactive)
GI50 [5]: > 100 µM (inactive)
GI50 [6]: > 100 µM (inactive)
GI50 [7]: > 100 µM
GI50 [8]: > 100 µM (inactive)
GI50 [9]: > 100 µM (inactive)
GI50 [10]: > 100 µM (inactive)
GI50 [11]: > 100 µM (inactive)
GI50 [12]: > 100 µM (inactive)
GI50 [13]: > 100 µM (inactive)
GI50 [14]: > 100 µM (inactive)
GI50 [19]: > 100 µM (inactive)
GI50 [20]: > 100 µM (inactive)

Nc1ccccc1C(=O)CCC1C(=O)NC(=S)NC1=O
GI50 [1]: > 100 µM (inactive)
GI50 [3]: > 100 µM (inactive)
GI50 [4]: > 100 µM (inactive)
GI50 [5]: > 100 µM (inactive)
GI50 [6]: > 100 µM (inactive)
GI50 [7]: > 100 µM
GI50 [8]: > 100 µM (inactive)
GI50 [9]: > 100 µM (inactive)
GI50 [10]: > 100 µM (inactive)
GI50 [11]: > 100 µM (inactive)
GI50 [12]: > 100 µM (inactive)
GI50 [13]: > 100 µM (inactive)
GI50 [14]: > 100 µM (inactive)
GI50 [15]: > 100 µM (inactive)
GI50 [16]: > 100 µM (inactive)
GI50 [17]: > 100 µM (inactive)
GI50 [19]: > 100 µM (inactive)
GI50 [20]: > 100 µM (inactive)

CCCS(=O)(=O)/C(=C(\c1ccc(Br)cc1)S(=O)(=O)CCC)c1ccc(Br)cc1
GI50 [2]: > 10 µM (inactive)
GI50 [3]: > 10 µM (inactive)
GI50 [4]: > 10 µM (inactive)
GI50 [5]: > 10 µM (inactive)
GI50 [6]: > 10 µM (inactive)
GI50 [7]: > 10 µM
GI50 [8]: > 10 µM (inactive)
GI50 [9]: > 10 µM (inactive)
GI50 [10]: > 10 µM (inactive)
GI50 [11]: > 10 µM (inactive)
GI50 [12]: > 10 µM (inactive)
GI50 [13]: > 10 µM (inactive)
GI50 [14]: > 10 µM (inactive)
GI50 [19]: > 10 µM (inactive)
GI50 [20]: > 10 µM (inactive)

CCOC(=O)C1=C(C)N(Cc2ccccc2)C(C)=C(C(=O)OCC)C1c1ccccc1O
GI50 [2]: 28.4 µM (inactive)
GI50 [3]: 24 µM (inactive)
GI50 [4]: 47.5 µM (inactive)
GI50 [5]: 27 µM (inactive)
GI50 [6]: 19.4 µM (inactive)
GI50 [7]: 30.1 µM
GI50 [8]: 31.7 µM (inactive)
GI50 [9]: 23.7 µM (inactive)
GI50 [10]: 13 µM (inactive)
GI50 [11]: 43.2 µM (inactive)
GI50 [12]: 44.2 µM (inactive)
GI50 [13]: 24.7 µM (inactive)
GI50 [14]: 39.4 µM (inactive)
GI50 [19]: 18.7 µM (inactive)
GI50 [20]: > 100 µM (inactive)

CCN(CC)CCNc1ccc2ncn3c4ccc(OC)cc4c(=O)c1c23
GI50 [1]: 57 µM (inactive)
GI50 [2]: 2.14 µM (inactive)
GI50 [3]: 4.79 µM (inactive)
GI50 [4]: 10.4 µM (inactive)
GI50 [5]: 1.34 µM (inactive)
GI50 [6]: 4.31 µM (inactive)
GI50 [7]: 1.57 µM
GI50 [8]: 0.836 µM (active)
GI50 [9]: 1.78 µM (inactive)
GI50 [10]: 1.49 µM (inactive)
GI50 [11]: 3.76 µM (inactive)
GI50 [12]: 17 µM (inactive)
GI50 [13]: 14.9 µM (inactive)
GI50 [14]: 1.38 µM (inactive)
GI50 [15]: 0.885 µM (active)
GI50 [16]: 8.28 µM (inactive)
GI50 [17]: 3.83 µM (inactive)
GI50 [19]: 2.23 µM (inactive)
GI50 [20]: 8.61 µM (inactive)

COc1cc(Br)c(/C=N\c2cccc3cc(OC)c(OC)cc23)cc1OC
GI50 [2]: 40.6 µM (inactive)
GI50 [3]: 39.7 µM (inactive)
GI50 [4]: 83.2 µM (inactive)
GI50 [5]: 17.8 µM (inactive)
GI50 [6]: 41.7 µM (inactive)
GI50 [7]: 31.4 µM
GI50 [8]: 34.7 µM (inactive)
GI50 [9]: 28.8 µM (inactive)
GI50 [10]: 97.7 µM (inactive)
GI50 [11]: > 100 µM (inactive)
GI50 [12]: > 100 µM (inactive)
GI50 [13]: 50.2 µM (inactive)
GI50 [14]: 42.5 µM (inactive)
GI50 [19]: 20.2 µM (inactive)
GI50 [20]: > 100 µM (inactive)

O=C1C(Cl)=C(N2CCN(CCOCCO)CC2)C(=O)c2ccccc21
GI50 [1]: 3.56 µM (inactive)
GI50 [2]: 15.2 µM (inactive)
GI50 [3]: 13.6 µM (inactive)
GI50 [4]: 20.2 µM (inactive)
GI50 [5]: 2.33 µM (inactive)
GI50 [6]: 16.6 µM (inactive)
GI50 [7]: 11.9 µM
GI50 [8]: 14.9 µM (inactive)
GI50 [9]: 16.3 µM (inactive)
GI50 [10]: 15.2 µM (inactive)
GI50 [11]: 23.8 µM (inactive)
GI50 [12]: 16.3 µM (inactive)
GI50 [13]: 18.4 µM (inactive)
GI50 [14]: 17.3 µM (inactive)
GI50 [15]: 12.2 µM (inactive)
GI50 [16]: 19.2 µM (inactive)
GI50 [17]: 18 µM (inactive)
GI50 [18]: 4.43 µM (inactive)
GI50 [19]: 3.13 µM (inactive)
GI50 [20]: 22.4 µM (inactive)

CN(C)CCNC(=O)c1cccc2nc3ccc4ccccc4c3nc12
GI50 [2]: 0.0478 µM (active)
GI50 [3]: 0.0942 µM (active)
GI50 [4]: 0.139 µM (active)
GI50 [5]: 0.0673 µM (active)
GI50 [6]: 0.178 µM (active)
GI50 [7]: 0.0598 µM
GI50 [8]: 0.0574 µM (active)
GI50 [9]: 0.131 µM (active)
GI50 [10]: 0.0434 µM (active)
GI50 [11]: 0.132 µM (active)
GI50 [12]: 0.197 µM (active)
GI50 [13]: 0.126 µM (active)
GI50 [14]: 0.112 µM (active)
GI50 [19]: 0.0583 µM (active)
GI50 [20]: 0.21 µM (active)

CSc1ccc2c(cc1=O)C(NC(=O)c1cc(O)c(OC(=O)O)c(O)c1)CCc1cc(O)c(O)c(O)c1-2 (configuration not stated)
GI50 [2]: 13.3 µM (inactive)
GI50 [3]: 19.2 µM (inactive)
GI50 [4]: > 89.9 µM (inactive)
GI50 [5]: 11.9 µM (inactive)
GI50 [6]: 18.8 µM (inactive)
GI50 [7]: 16.1 µM
GI50 [8]: 28.9 µM (inactive)
GI50 [9]: 22.8 µM (inactive)
GI50 [10]: 30.3 µM (inactive)
GI50 [11]: 50.9 µM (inactive)
GI50 [12]: > 89.9 µM (inactive)
GI50 [13]: 20 µM (inactive)
GI50 [14]: 16 µM (inactive)
GI50 [19]: 25.9 µM (inactive)
GI50 [20]: > 8.99 µM (inactive)

COc1cc(C2c3cc4c(cc3[C@@H](Nc3ccc5c(c3)OCCO5)C3COC(=O)[C@H]23)OCO4)cc(OC)c1O (some centres not stated)
GI50 [1]: 0.802 µM (active)
GI50 [2]: 0.627 µM (active)
GI50 [3]: 0.207 µM (active)
GI50 [4]: 1.52 µM (inactive)
GI50 [5]: 0.138 µM (active)
GI50 [6]: 0.295 µM (active)
GI50 [7]: 1.25 µM
GI50 [8]: 0.693 µM (active)
GI50 [9]: 1.85 µM (inactive)
GI50 [10]: 0.918 µM (active)
GI50 [11]: 1.04 µM (active)
GI50 [12]: 3.98 µM (inactive)
GI50 [13]: 2.87 µM (inactive)
GI50 [14]: 0.516 µM (active)
GI50 [15]: 1.07 µM (active)
GI50 [16]: 0.743 µM (active)
GI50 [17]: 0.918 µM (active)
GI50 [18]: 16.4 µM (inactive)
GI50 [19]: 0.453 µM (active)
GI50 [20]: 2.22 µM (inactive)
